# Laboratory results: patent US9029387B2, “Benzonaphthyridinamines as autotaxin inhibitors” (Merck Patent GmbH, priority 2010, dated 2015)
# Target: T1, recombinant autotaxin (Homo sapiens, UniProt Q13822)
# T1 construct: made in house; host or cells: Hi5 insect cells (baculovirus)
# Assay: Autotaxin test (enzyme test), Amplex Red fluorescence
# Format: biochemical
# Details: IC50 ranges; LPC 75 μM; read-out: Autotaxin inhibition IC50
# Description: The autotaxin activity is measured indirectly using Amplex Red reagent. Amplex Red is measured here as fluorogenic indicator for the H2O2 formed. In detail, autotaxin converts the substrate lysophosphatidylcholine (LPC) into phosphocholine and lysophosphatidylic acid (LPA). After this reaction, the phosphocholine is reacted with alkaline phosphatase to give inorganic phosphate and choline. In the next step, choline is oxidised by choline oxidase to give betaine, with formation of H2O2. H2O2 reacts with Amplex Red reagent in the presence of peroxidase (horseradish peroxidase) in a 1:1 stoichiometry and forms the highly fluorescent resorufin. The fluorescence is measured in a reaction-dependent kinetic mode in order that fluorescent signals from possible other fluorescent substances which are not involved in the reaction can be corrected out.
# 1.5 μl of a standard solution or of the test substances (compounds of the invention) in individual concentrations dissolved in 20 mM Hepes pH 7.2 with a maximum of 7.7% of DMSO are pre-incubated together with 10 μl (16 ng) of highly purified recombinant autotaxin in a black microtitre plate provided with 384 wells at 22° C. for 30 min. The reaction is then initiated by addition of 5 μl of L-α-lysophosphatidylcholine (LPC), where the final concentration of LPC is 75 μM. The mixture is incubated at 37° C. for 90 min. After the incubation, Amplex Red reagent, peroxidase (horseradish peroxidase) and choline oxidase is added, and the fluorescence is immediately measured at 612 nm with excitation of 485 nm in a “Tecan Ultra multimode” reader. The activity of autotaxin is calculated indirectly via detection of the H2O2 formed.
# • Microtitre plate: PS microplate, 384 wells, small volume, black Corning, Cat#3677 • Protein: recombinant autotaxin (Baculovirale Hi5 Expression) • Substrate: L-a-lysophosphatidylcholine (chicken egg)); Avanti Polar Lipids #830071 P • Standard: C14 LPA, Avanti Polar Lipids, Cat#857120P • Detection reagent: Amplex Red reagent; Invitrogen #A12222; dissolved in 1.923 ml of DMSO peroxidase type VI-A (horseradish) from Sigma #P6782; dissolved in 7.45 ml of test buffer, choline oxidase; Sigma #C5896; dissolved in 2.47 ml of test buffer • Detection reagent mix: 1:100 dilution of Amplex Red Reagenzt in test buffer • Test buffer: 200 mM Tris HCl, Merck, Cat #1.08219, pH 7.9, 0.1% BSA, lipid-free, Roche Cat#775835 Pharmacological Data Autotaxin Inhibition
row,SMILES,IC50
1,"COc1ccc(Cl)cc1NC(=O)CN1CCc2nc3ccccc3c(NC3CCN(C)CC3)c2C1 [Compound 1, N-(5-Chloro-2-methoxyphenyl)-2-[10-(1-methylpiperidin-4-ylamino)-3,4-dihydro-1H-benzo[b]-1,6-naphthyridin-2-yl]acetamide]",100 to 1000 nM
2,"COc1ccc(Cl)cc1NC(=O)CN1CCc2nc3ccccc3c(Nc3ccccn3)c2C1 [Compound 23, N-(5-Chloro-2-methoxyphenyl)-2-[10-(pyridin-2-ylamino)-3,4-dihydro-1H-benzo[b]-1,6-naphthyridin-2-yl]acetamide]",> 1000 nM
3,"COc1ccc(Nc2c3c(nc4ccccc24)CCN(CC(=O)Nc2cc(Cl)ccc2OC)C3)cc1 [Compound 24, N-(5-Chloro-2-methoxyphenyl)-2-[10-(4-methoxy-phenylamino)-3,4-dihydro-1H-benzo[b]-1,6-naphthyridin-2-yl]acetamide]",> 1000 nM
4,"COc1ccc(Cl)cc1NC(=O)CN1CCc2nc3ccccc3c(Nc3ccncc3)c2C1 [Compound 20, N-(5-Chloro-2-methoxyphenyl)-2-[10-(pyridin-4-ylamino)-3,4-dihydro-1H-benzo[b]-1,6-naphthyridin-2-yl]acetamide]",> 1000 nM
5,"CCN(CC)C(=O)CNc1c2c(nc3ccccc13)CCN(CC(=O)Nc1cc(Cl)ccc1OC)C2 [Compound 18, N-(5-Chloro-2-methoxyphenyl)-2-[10-(diethyl-carbamoylmethylamino)-3,4-dihydro-1H-benzo[b]-1,6-naphthyridin-2-yl]acetamide]",100 to 1000 nM
6,"COc1ccc(Cl)cc1NC(=O)CN1CCc2nc3ccccc3c(N)c2C1 [Compound 2, 2-(10-Amino-3,4-dihydro-1H-benzo[b]-1,6-naphthyridin-2-yl)-N-(5-chloro-2-methoxyphenyl)acetamide]",> 1000 nM
7,"COc1ccc(Cl)cc1NC(=O)CN1CCc2nc3ccccc3c(Nc3cccnc3)c2C1 [Compound 21, N-(5-Chloro-2-methoxyphenyl)-2-[10-(pyridin-3-ylamino)-3,4-dihydro-1H-benzo[b]-1,6-naphthyridin-2-yl]acetamide]",> 1000 nM
8,"COc1ccc(Cl)cc1NC(=O)COC(=O)N1CCc2nc3ccccc3c(NCCO)c2C1 [Compound 7, 10-(2-Hydroxyethylamino)-3,4-dihydro-1H-benzo[b]-1,6-naphthyridine-2-carboxylic acid (5-chloro-2-methoxy-phenylcarbamoyl)methyl ester]",> 1000 nM
9,"COc1ccc(Cl)cc1NC(=O)CN1CCc2nc3ccccc3c(NCc3nc4ccccc4[nH]3)c2C1 [Compound 11, 2-{10-[(1H-Benzimidazol-2-ylmethyl)amino]-3,4-dihydro-1H-benzo[b]-1,6-naphthyridin-2-yl}-N-(5-chloro-2-methoxyphenyl)acetamide]",> 1000 nM
10,"COc1ccc(Cl)cc1NC(=O)CN1CCc2nc3ccccc3c(Nc3ccccc3)c2C1 [Compound 22, N-(5-Chloro-2-methoxyphenyl)-2-(10-phenylamino-3,4-dihydro-1H-benzo[b]-1,6-naphthyridin-2-yl)acetamide]",> 1000 nM
11,"COc1ccc(Cl)cc1NC(=O)CN1CCc2nc3ccccc3c(N3CCN(CCO)CC3)c2C1 [Compound 10, N-(5-Chloro-2-methoxyphenyl)-2-{10-[4-(2-hydroxyethyl)-piperazin-1-yl]-3,4-dihydro-1H-benzo[b]-1,6-naphthyridin-2-yl}acetamide]",100 to 1000 nM
12,"COc1ccc(Cl)cc1NC(=O)CN1CCc2nc3ccccc3c(NCCN(C)C)c2C1 [Compound 5, N-(5-Chloro-2-methoxyphenyl)-2-[10-(2-dimethylamino-ethylamino)-3,4-dihydro-1H-benzo[b]-1,6-naphthyridin-2-yl]acetamide]",100 to 1000 nM

# Second part, the compound after the results:
row,IC50,SMILES
1,100 to 1000 nM,"COc1ccc(Cl)cc1NC(=O)CN1CCc2nc3ccccc3c(NCC(=O)N(C)C)c2C1 [Compound 9, N-(5-Chloro-2-methoxyphenyl)-2-[10-(dimethyl-carbamoylmethylamino)-3,4-dihydro-1H-benzo[b]-1,6-naphthyridin-2-yl]acetamide]"
2,100 to 1000 nM,"COc1ccc(Cl)cc1NC(=O)CN1CCc2nc3ccccc3c(NCC(=O)N3CCN(C(C)C)CC3)c2C1 [Compound 17, N-(5-Chloro-2-methoxyphenyl)-2-{10-[2-(4-isopropyl-piperazin-1-yl)-2-oxoethylamino]-3,4-dihydro-1H-benzo-[b]-1,6-naphthyridin-2-yl}acetamide]"
3,100 to 1000 nM,"CNC(=O)CNc1c2c(nc3ccccc13)CCN(CC(=O)Nc1cc(Cl)ccc1OC)C2 [Compound 8, N-(5-Chloro-2-methoxyphenyl)-2-[10-(methyl-carbamoylmethylamino)-3,4-dihydro-1H-benzo[b]-1,6-naphthyridin-2-yl]acetamide]"
4,100 to 1000 nM,"COc1ccc(Cl)cc1NC(=O)CN1CCc2nc3ccccc3c(NCC(=O)N3CCN(C)CC3)c2C1 [Compound 16, N-(5-Chloro-2-methoxyphenyl)-2-{10-[2-(4-methyl-piperazin-1-yl)-2-oxoethylamino]-3,4-dihydro-1H-benzo-[b]-1,6-naphthyridin-2-yl}acetamide]"
5,100 to 1000 nM,"COc1ccc(Cl)cc1NC(=O)CN1CCc2nc3ccccc3c(NCC(=O)N3CCCCC3)c2C1 [Compound 13, N-(5-Chloro-2-methoxyphenyl)-2-[10-(2-oxo-2-piperidin-1-ylethylamino)-3,4-dihydro-1H-benzo[b]-1,6-naphthyridin-2-yl]acetamide]"
6,100 to 1000 nM,"COc1ccc(Cl)cc1NC(=O)CN1CCc2nc3ccccc3c(NCC(=O)N3CCN(Cc4ccccc4)CC3)c2C1 [Compound 19, 2-{10-[2-(4-Benzylpiperazin-1-yl)-2-oxoethylamino]-3,4-dihydro-1H-benzo[b]-1,6-naphthyridin-2-yl}-N-(5-chloro-2-methoxyphenyl)acetamide]"
7,100 to 1000 nM,"COc1ccc(Cl)cc1NC(=O)CN1CCc2nc3ccccc3c(NCCO)c2C1 [Compound 4, N-(5-Chloro-2-methoxyphenyl)-2-[10-(2-hydroxy-ethylamino)-3,4-dihydro-1H-benzo[b]-1,6-naphthyridin-2-yl]acetamide]"
8,100 to 1000 nM,"COc1ccc(Cl)cc1NC(=O)CN1CCc2nc3ccccc3c(NCC(=O)N3CCOCC3)c2C1 [Compound 14, N-(5-Chloro-2-methoxyphenyl)-2-[10-(2-morpholin-4-yl-2-oxoethylamino)-3,4-dihydro-1H-benzo[b]-1,6-naphthyridin-2-yl]acetamide]"
9,> 1000 nM,"COc1ccc(Cl)cc1NC(=O)CN1CCc2nc3ccccc3c(NCC(=O)NC3CCCCC3)c2C1 [Compound 15, N-(5-Chloro-2-methoxyphenyl)-2-[10-(cyclohexyl-carbamoylmethylamino)-3,4-dihydro-1H-benzo[b]-1,6-naphthyridin-2-yl]acetamide]"
10,100 to 1000 nM,"COc1ccc(Cl)cc1NC(=O)CN1CCc2nc3ccccc3c(NCC(=O)N3CCCC3)c2C1 [Compound 12, N-(5-Chloro-2-methoxyphenyl)-2-[10-(2-oxo-2-pyrrolidin-1-ylethylamino)-3,4-dihydro-1H-benzo[b]-1,6-naphthyridin-2-yl]acetamide]"

# Same assay, conditions: at 3E−5M; LPC 75 μM
row,% (ctrl 3E−5M),SMILES
1,79%,"Nc1c2c(nc3ccccc13)CCN(CC(=O)Nc1cc(Cl)ccc1Cl)C2 [Compound 3, 2-(10-Amino-3,4-dihydro-1H-benzo[b]-1,6-naphthyridin-2-yl)-N-(2,5-dichlorophenyl)acetamide]"
2,−9%,"COc1ccc(Cl)cc1NC(=O)COC(=O)N1CCc2nc3ccccc3c(NCCN(C)C)c2C1 [Compound 6, 10-(2-Dimethylaminoethylamino)-3,4-dihydro-1H-benzo[b]-1,6-naphthyridine-2-carboxylic acid (5-chloro-2-methoxyphenylcarbamoyl)methyl ester]"
